The test system of test [1] is human bone marrow stromal cells. The experiment in a line: Production of G-CSF by human bone marrow stromal cells. The format is cell-based. Particulars: 10^−5 M PT-100, culture media collected on day 1. The procedure: Mononuclear cells were purified from bone marrow and cultured long-term culture medium, (Stem Cell Technologies, Inc., Vancouver, B.C.) for 2 weeks, with a single feeding of fresh medium after 1 week. […] Culture media were collected on day 1. Supernatants were assayed for human G-CSF using a Quantikine high sensitivity immuno-assay kit (R+D Systems, Minneapolis, Minn.).

Test [2] relates to cyclophosphamide treated mice. Briefly: Regeneration of neutrophils in cyclophosphamide-treated mice. It counts as in vivo. The following applies: for neutrophil recovery versus saline treated mice: 5 days; for ANC after treatment was stopped: count on Day 13; for Day on which normal levels of absolute neutrophil counts (ANC) were reached: saline treated mice Day 7. The procedure: In these studies, mice were injected intraperitoneally with a sublethal dose of 220 mg/kg cyclophosphamide (Day 1). […] After 72 hours (Day 3) mice were divided into 3 groups. […] G-CSF was used at 0.04 ug/dose (4 μg/kg/day) which is the dose frequently used in published reports studying the G-CSF effects in mice and is also the equivalent dose used in cancer patients. All administrations were performed twice daily (b.i.d.) for 5 consecutive days or as indicated. Blood samples were taken from individual mice on Day 4–8, and in some experiments on Days 13 or 17. At each time pont four or five test animals were sampled. Total and differential white blood cell counts of Gimsa-stained blood smears were performed.

In another test the test system is BALB/c mice. The experiment in a line: Stimulation of hematopoiesis in the spleen of normal mice (splenocyte colony assay). The format is in vivo. The following applies: twice daily for 5 days, subcutaneous injection or oral gavage. Here is the method: On the sixth day the animals were sacrificed and their spleens were excised using sterile procedures. The spleens were disrupted to produce single cell suspensions which were subsequently treated with a solution of Tris ammonium chloride (pH 7.2) to lyse erythrocytes. The resulting splenocyte populations were in a hemocytometer and resuspended at […] in Iscove's Modified Eagles medium (IMDM) supplemented with 2% heat inactivated fetal calf serum. 0.3 mL of each splenocyte solution was added to 3 mL of Methocult™GF M3434 (Stem Cell Technologies, Vancouver, BC, Canada), a methylcellulose medium containing recombinant cytokines used for colony assays of murine progenitor cells. The medium was vigorously mixed and then 1.1 mL of the mixture was placed in duplicate onto sterile 35 mm diameter culture dishes, resulting in 5×10^5 splenocytes/plate. The plated cells were incubated at 37° C. under humidified conditions in 95% air/5% CO2 for 7 days. CFU-E were enumerated as per the manufacturers specifications after 2 days, while BFU-E, CFU-GM and CFU-GEMM were enumerated after 7 days. For each mouse, the absolute CFU/spleen were calculated using the total splenocyte count determined in the hemocytometer. The data shown in FIG. 9 represents the mean±SD CFU/spleen from 3 mice in each dosing group.

The test system of test [3] is human bone marrow CD34+ cells (committed progenitor cells). Briefly: 2 week semi-solid (methylcellulose) colony (CFU) assay. It counts as cell-based. An excerpt:
Hematopoiesis is sustained by a pool of hematopoietic stem cells (HSCs) that can self-renew and differentiate into hematopoietic progenitor cells (HPCs). HPCs are committed to specific lineages which can be identified based on their colony morphology when grown in semi-solid media in vitro, typically over a 2 week period. The colonies grown in the semi-solid colony assay are functionally defined as colony- or burst-forming units and include BFU-E and CFU-E (cells committed to the erythroid lineage), CFU-GM (cells committed to the granulocytic/monocytic lineage), BFU-MK and CFU-MK (cells committed to the megakaryocyte lineage) and CFU-GEMM (multipotent progenitors).

Test [4] deals with human CD34+ cells (primitive hematopoietic progenitor cells) on stromal cell layer. Briefly: Long-Term Culture (LTC) assay followed by semi-solid colony assay. The format is cell-based. An excerpt: An assay to evaluate the effect of a compound or of growth factors on PHPCs was first described by Dexter (Dexter T. M. et al, J. Cell. Physiol. 91:335–344 (1977)), and combines the Long-Term Culture (LTC) with the semi-solid colony assay. LTC is initiated over a pre-formed stromal cell layer which provides the necessary hematopoietic growth factors. It has been used extensively for the in vitro examination of murine and human hematopoiesis and to evaluate the ability of test compounds to generate LTC-ICs.
For the LTC assays, CD34^+ cells were isolated by positive selection from human bone marrow cells, apheresed peripheral blood or umbilical cord blood using a MAC separation system. To establish a stromal feeder layer, human bone marrow cells were cultured in Myelocult long term culture medium for 2 weeks. […] Medium and PT-100 was exchanged every three days thereafter. At the end of the culture period the culture was assayed for progenitor cells by plating in semi-solid medium (methylcellulose) supplemented with growth factors (Stem Cell Factor, GM-CSF, IL-3 and Erythropoietin).
The total number of myeloid, erythroid, blast forming and multilineage clonogeneic progenitors (colonies CFU-GM, CFU-E, BFU-E and CFU-GEMM, respectively) were determined after 14 days in methylcellulose culture.

The test system of test [5] is human bone marrow CD34+ cells (committed progenitor cells). Particulars: stated as previously shown; cited from earlier work.
Test [6] deals with human CD34+ cells (primitive hematopoietic progenitor cells) on stromal cell layer. The following applies: cited from earlier work.

The values that follow come from patent US7067489B2, “Hematopoietic stimulation” (Point Therapeutics, Inc., priority 1998, dated 2006).

Take `CC(C)[C@H](N)C(=O)N1CCC[C@H]1B(O)O` [PT-100, valine-prolineboronic acid]: the “production of G-CSF by cultured stromal cells” value in test [1] was “stimulates production of G-CSF”. For the same molecule, the “neutrophil recovery over saline” value in test [2] (0.1 μg/b.i.d. oral gavage, 5 consecutive days from Day 3) is recorded as “did not significantly enhance neutrophil recovery over saline”. For the same molecule, the “neutrophil recovery versus saline treated mice” value is “did not show much effect” in test [2] (1 μg/b.i.d. s.c.), “accelerated” in test [2] (5 μg/b.i.d. s.c.), “accelerated” in test [2] (10 μg/b.i.d. s.c.) and “accelerated” in test [2] (20 μg/b.i.d. s.c.). The “ANC after treatment was stopped” value in test [2] (2 μg/b.i.d. by gavage for 5 days) was “decreased to normal counts by Day 13”. Also, the “neutrophil regeneration during the treatment period, PT-100 versus G-CSF” value in test [2] (2 μg/b.i.d. by gavage, 5 consecutive days from Day 3) is on record as “stimulated neutrophil regeneration to a similar level”. In addition, the “Day on which normal levels of absolute neutrophil counts (ANC) were reached” value in test [2] (2 μg/b.i.d. oral gavage) and in test [2] (5 μg/b.i.d. oral gavage) was 5 days in each case. Besides, the “rate of neutrophil recovery with additional administration for 2 or 3 days” value in test [2] (gavage b.i.d. for 2 or 3 days starting Day 3) is “increased the rate of recovery even further”. In test [2] (gavage b.i.d. for 1 day starting Day 3 (5, 2 or 1 μg/b.i.d.)), the “reconstitution of neutrophils after one day of administration” value is listed as “accelerated reconstitution of neutrophils over saline treated animals”. In addition, in test [2] (gavage b.i.d., total of 4 or 5 days), the “rate of neutrophil recovery or ANC with 4 or 5 days versus 3 day administration” value is “does not significantly increase”. Besides, the “effect of additional administration on Days 5, 6 and 7 on ANC” value in test [2] (oral gavage b.i.d.) was “caused a further increase in ANC”. In test [2] (s.c., five day period from Day 3, both doses tested), the “neutrophil recovery, twice daily versus once per day administration” value was “faster rate of neutrophil recovery to higher neutrophil levels”. In the test on BALB/c mice, the “hematopoiesis in spleen (CFU/spleen: CFU-E, BFU-E, CFU-GM, CFU-GEMM)” value is “stimulated hematopoiesis for all progenitor colony types tested”. Moreover, in test [3] (human bone marrow CD34+ cells, 4 h pre-incubation, 14 days in methylcellulose with sub-optimal growth factors), the “differentiation of committed progenitor cells (CFU-E, CFU-GM, CFU-GEMM, BFU-E colonies)” value was “did not stimulate differentiation”. Also, the “generation of CFUs in the 2 week semi-solid assay” value in test [3] (human bone marrow, apheresed peripheral blood or umbilical cord blood cells) is “did not stimulate the generation of CFUs”. In test [4] (CD34+ cells from apheresed peripheral blood or umbilical cord blood, 30 days on irradiated stromal cells), the “number of 4 and 5 week LTC-ICs” value was “increased”. Further, the “growth of very early progenitor cells in LTC assays” value in test [4] (all three cell sources (bone marrow, apheresed peripheral blood, umbilical cord blood), LTC-ICs at 4, 5 and 6 weeks) is recorded as “significantly increased”. Also, the “number of clonogeneic progenitors able to form colonies in semi-solid medium” value in test [4] (human bone marrow culture, 4 week LTC assay) is reported as “increased, in a dose dependent manner”.

B1: G-CSF: granulocyte colony stimulating factor, currently used to accelerate neutrophil recovery in cancer patients undergoing chemotherapy (protein, UniProt P09919 31-207, looked up)
Granulocyte …: TPLGPASSLPQSFLLKCLEQVRKIQGDGAALQEKLVSECATYKLCHPEELVLLGHSLGIPWAPLSSCPSQALQLAGCLSQLHSGLFLYQGLLQALEGISPELGPTLDTLQLDVADFATTIWQQMEELGMAPALQPTQGAMPAFASAFQRRAGGVLVASHLQSFLEVSYRVLRHLAQP
B1: the “CFU formation in the 2 week semi-solid assay” value in test [5] is “stimulate CFU formation”. In test [2] (0.04 μg/b.i.d. s.c. for 5 days), the “ANC after treatment was stopped” value is on record as “decreased to normal counts by Day 13”. The “neutrophil regeneration during the treatment period, PT-100 versus G-CSF” value in test [2] (0.04 μg/b.i.d. subcutaneous injections, 5 consecutive days from Day 3) was “stimulated neutrophil regeneration to a similar level”. Besides, in test [6], the “effect on growth of early human hematopoietic progenitor cells” value is “not affected”.
